Reference: the NIST ThermoML archive (doi:10.1021/acs.jced.7b01026)

Assays:
[1] = Crystal; DTA
[2] = molar heat capacity at constant pressure
[3] = Molar enthalpy of transition or fusion; settings: Crystal; DSC
[4] = Boiling temperature at pressure P; settings: 100 kPa; Glass; DTA

Cc1cccc(CO)c1 [3-methylbenzyl alcohol]
Settings	Molar enthalpy of transition or fusion [kcal/mol]	Normal melting temperature [°C]
[1]	–	-8.8
[3]	3.24	–

[2], 101.33 kPa, DSC, Liquid
Settings	molar heat capacity at constant pressure [J/K/mol]
266.15 K	222.22
306.15 K	250.8
356.15 K	281.1
406.15 K	295.27
456.15 K	308.1

FC(F)C(F)(F)C(F)(F)C(F)(F)C(F)(F)C(F)(F)C(F)(F)C(F)(F)F [1H-perfluorooctane]
Settings	Molar enthalpy of transition or fusion [kcal/mol]	Normal melting temperature [°C]
[1]	–	-18.8
[3]	2.36	–

[2], 101.33 kPa, Liquid, DSC
Settings	molar heat capacity at constant pressure [J/K/mol]
258.16 K	446.11
273.16 K	458.71
298.16 K	480.14
323.16 K	494.84
373.14 K	526.76

Cc1ccc(C)o1 [2,5-dimethylfuran]
[2], 101.33 kPa, Liquid, DSC
Settings	molar heat capacity at constant pressure [J/K/mol]
213.15 K	159.28
253.15 K	163.99
293.15 K	170.63
333.15 K	184.95

Cc1ccc(C(=O)O)cc1 [4-methylbenzoic acid]
Settings	Molar enthalpy of transition or fusion [kcal/mol]	Normal melting temperature [°C]
[1]	–	179.0
[3]	5.14	–

[2], 101.33 kPa, Liquid, DSC
Settings	molar heat capacity at constant pressure [J/K/mol]
458.15 K	331.25
473.15 K	338.33
488.15 K	347.59
503.15 K	353.98
523.15 K	362.02

C/C=C/c1ccc(O)c(OC)c1 [2-methoxy-4-(1E)-1-propen-1-yl-phenol]
Settings	Molar enthalpy of transition or fusion [kcal/mol]	Normal melting temperature [°C]
[1]	–	21.6
[3]	2.8	–

[2], 101.33 kPa, Liquid, DSC
Settings	molar heat capacity at constant pressure [J/K/mol]
298.15 K	326.92
323.15 K	336.45
373.15 K	348.43
423.15 K	381.6
473.15 K	387.19

Cc1ccc(C=O)o1 [5-methylfurfural]
Settings	Molar enthalpy of transition or fusion [kcal/mol]	Normal melting temperature [°C]
[1]	–	-32.6
[3]	2.76	–

[2], 101.33 kPa, Liquid, DSC
Settings	molar heat capacity at constant pressure [J/K/mol]
250.15 K	180.47
300.15 K	192.47
350.14 K	202.49
400.13 K	219.34
450.1 K	233.54

CCOC(=O)Cc1ccccc1 [ethyl phenylacetate]
Settings	Molar enthalpy of transition or fusion [kcal/mol]	Normal melting temperature [°C]
[1]	–	-29
[3]	4.32	–

[2], 101.33 kPa, Liquid, DSC
Settings	molar heat capacity at constant pressure [J/K/mol]
253.15 K	271.75
293.15 K	288.83
333.15 K	292.77
373.15 K	306.89
413.15 K	326.27

CCCCCCC1CCCCC1 [hexylcyclohexane]
Settings	Molar enthalpy of transition or fusion [kcal/mol]	Normal melting temperature [°C]
[1]	–	-48.2
[3]	4.91	–

[2], 101.33 kPa, Liquid, DSC
Settings	molar heat capacity at constant pressure [J/K/mol]
228.16 K	292.03
288.16 K	330.24
348.14 K	361.21
408.13 K	408.85
468.09 K	463.72

CCC(O)c1ccccc1 (stereo not given) [1-phenyl-1-propanol]
Settings	Boiling temperature at pressure P [°C]	Normal melting temperature [°C]
[1]	–	-10.6
[4]	-74.3	–

[2], 101.33 kPa, Liquid, DSC
Settings	molar heat capacity at constant pressure [J/K/mol]
273.15 K	279.6
323.15 K	319.91
373.15 K	338.03
423.15 K	352.6
473.15 K	368.94

CC(CO)c1ccccc1 (stereo not given) [2-phenyl-1-propanol]
Settings	Boiling temperature at pressure P [°C]
[4]	-75.5

[2], 101.33 kPa, Liquid, DSC
Settings	molar heat capacity at constant pressure [J/K/mol]
273.15 K	273.34
323.15 K	300.98
373.15 K	325.91
423.15 K	341.98
473.15 K	351.78

Cc1ccccc1C=O [2-methylbenzaldehyde]
Settings	Molar enthalpy of transition or fusion [kcal/mol]	Normal melting temperature [°C]
[1]	–	-39.7
[3]	2.44	–

[2], 101.33 kPa, Liquid, DSC
Settings	molar heat capacity at constant pressure [J/K/mol]
238.16 K	184.43
293.16 K	199.57
348.15 K	217.83
403.13 K	230.69
458.11 K	261.08

Cc1cccc(C=O)c1 [3-methylbenzaldehyde]
Settings	Normal melting temperature [°C]
[1]	-48.4

[2], 101.33 kPa, Liquid, DSC
Settings	molar heat capacity at constant pressure [J/K/mol]
273.17 K	189.47
313.16 K	205.93
353.15 K	219.75
393.14 K	235.61
453.11 K	258.08

CCCCCC(=O)CCCCC [undecan-6-one]
Settings	Molar enthalpy of transition or fusion [kcal/mol]	Normal melting temperature [°C]
[1]	–	13
[3]	7.49	–

[2], 101.33 kPa, Liquid, DSC
Settings	molar heat capacity at constant pressure [J/K/mol]
293.16 K	363.74
343.16 K	381.62
373.15 K	402.4
423.13 K	422.49
473.1 K	463.02

CC(C)c1ccccc1O [2-(1-methylethyl)phenol]
Settings	Molar enthalpy of transition or fusion [kcal/mol]	Normal melting temperature [°C]
[1]	–	12
[3]	2.62	–

molar heat capacity at constant pressure [J/K/mol], [2], 101.33 kPa
Settings	273.15 K	323.15 K	373.15 K	423.15 K	473.15 K
DSC, Liquid	–	307.38	321.55	337.89	354.37
Metastable liquid, DSC	281.92	–	–	–	–

Cc1ccc(C=O)cc1 [4-methylbenzaldehyde]
Settings	Molar enthalpy of transition or fusion [kcal/mol]	Normal melting temperature [°C]
[1]	–	-10.0
[3]	2.64	–

[2], 101.33 kPa, DSC, Liquid
Settings	molar heat capacity at constant pressure [J/K/mol]
273.17 K	191.4
313.16 K	204.25
353.15 K	216.27
393.14 K	232.37
453.11 K	250.99

COc1cccc(OC)c1O [1,3-dimethoxy-2-hydroxybenzene]
Settings	Molar enthalpy of transition or fusion [kcal/mol]	Normal melting temperature [°C]
[1]	–	53.2
[3]	12	–

[2], 101.33 kPa, Liquid, DSC
Settings	molar heat capacity at constant pressure [J/K/mol]
333.16 K	317.27
373.15 K	328.21
413.14 K	333.46
453.12 K	347.18
493.1 K	357.35

CCCOCC(C)O (stereo not given) [1-propoxy-2-propanol]
[2], 101.33 kPa, Liquid, DSC
Settings	molar heat capacity at constant pressure [J/K/mol]
193.19 K	237.41
223.15 K	247.93
273.16 K	271.09
323.16 K	290.12
373.15 K	314.7

CC(=O)Oc1ccccc1 [phenyl ethanoate]
Settings	Molar enthalpy of transition or fusion [kcal/mol]	Normal melting temperature [°C]
[1]	–	-7
[3]	3.06	–

[2], 101.33 kPa, Liquid, DSC
Settings	molar heat capacity at constant pressure [J/K/mol]
253.15 K	220.42
293.15 K	224.78
333.15 K	240.03
373.15 K	255.41
413.15 K	269.44

CC(O)Cc1ccccc1 (stereo not given) [1-phenyl-2-propanol]
Settings	Boiling temperature at pressure P [°C]
[4]	-72.5

[2], 101.33 kPa, Liquid, DSC
Settings	molar heat capacity at constant pressure [J/K/mol]
273.15 K	282.05
323.15 K	311.06
373.15 K	329.31
423.15 K	345.52
473.15 K	354.78
